# Measurements: PMC9736374, “Design, Synthesis and Antimicrobial Properties of New Tetracyclic Quinobenzothiazine Derivatives” (International Journal of Molecular Sciences, 2022)
# pIC50: −log10 of the molar value.
# Tested on: Staphylococcus aureus ATCC 29213
# Test: MIC, microtitration broth method
# Assay type: cell-based
# Settings: ATCC29213; SA = Staphylococcus aureus ATCC 29213; 24 h, 37 °C
row,SMILES,MIC [µM]
1,"CCCOc1ccc2c(c1)Sc1c[n+](C)c3ccccc3c1N2 [Compound 6a, 9-propoxy-5-methyl-12H-quino[3,4-b][1,4]benzothiazinium chloride]",22.3

# Tested on: methicillin-resistant S. aureus SA 3202 (MRSA1)
# Test: MIC, microtitration broth method
# Assay type: cell-based
# Settings: Staphylococcus aureus; MRSA1 = SA 3202; 24 h, 37 °C
row,SMILES,MIC [µM]
1,"CCCOc1ccc2c(c1)Sc1c[n+](C)c3ccccc3c1N2 [Compound 6a, 9-propoxy-5-methyl-12H-quino[3,4-b][1,4]benzothiazinium chloride]",22.3

# Tested on: methicillin-resistant S. aureus SA 630 (MRSA2)
# Test: MIC, microtitration broth method
# Assay type: cell-based
# Settings: Staphylococcus aureus; MRSA2 = SA 630; 24 h, 37 °C
row,SMILES,MIC [µM]
1,"CCCOc1ccc2c(c1)Sc1c[n+](C)c3ccccc3c1N2 [Compound 6a, 9-propoxy-5-methyl-12H-quino[3,4-b][1,4]benzothiazinium chloride]",22.3

# Tested on: methicillin-resistant S. aureus 63718 (MRSA3)
# Test: MIC, microtitration broth method
# Assay type: cell-based
# Settings: Staphylococcus aureus; MRSA3 = 63718; 24 h, 37 °C
row,SMILES,MIC [µM]
1,"CCCOc1ccc2c(c1)Sc1c[n+](C)c3ccccc3c1N2 [Compound 6a, 9-propoxy-5-methyl-12H-quino[3,4-b][1,4]benzothiazinium chloride]",11.1

# Tested on: Enterococcus faecalis ATCC 29212
# Test: MIC, microtitration broth method
# Assay type: cell-based
# Settings: ATCC29212; EF = Enterococcus faecalis; 24 h, 37 °C
row,SMILES,MIC [µM]
1,"CCCOc1ccc2c(c1)Sc1c[n+](C)c3ccccc3c1N2 [Compound 6a, 9-propoxy-5-methyl-12H-quino[3,4-b][1,4]benzothiazinium chloride]",89.1

# Tested on: vancomycin-resistant E. faecalis VRE 342B (VRE1)
# Test: MIC, microtitration broth method
# Assay type: cell-based, Enterococcus faecalis
# Settings: VRE1 = VRE 342B; 24 h, 37 °C
row,SMILES,MIC [µM]
1,"CCCOc1ccc2c(c1)Sc1c[n+](C)c3ccccc3c1N2 [Compound 6a, 9-propoxy-5-methyl-12H-quino[3,4-b][1,4]benzothiazinium chloride]",89.1

# Tested on: vancomycin-resistant E. faecalis VRE 368 (VRE2)
# Test: MIC, microtitration broth method
# Assay type: cell-based, Enterococcus faecalis
# Settings: VRE2 = VRE 368; 24 h, 37 °C
row,SMILES,MIC [µM]
1,"CCCOc1ccc2c(c1)Sc1c[n+](C)c3ccccc3c1N2 [Compound 6a, 9-propoxy-5-methyl-12H-quino[3,4-b][1,4]benzothiazinium chloride]",89.1

# Tested on: vancomycin-resistant E. faecalis VRE 725B (VRE3)
# Test: MIC, microtitration broth method
# Assay type: cell-based, Enterococcus faecalis
# Settings: VRE3 = VRE 725B; 24 h, 37 °C
row,SMILES,MIC [µM]
1,"CCCOc1ccc2c(c1)Sc1c[n+](C)c3ccccc3c1N2 [Compound 6a, 9-propoxy-5-methyl-12H-quino[3,4-b][1,4]benzothiazinium chloride]",89.1

# Tested on: M. smegmatis ATCC 700084
# Test: In vitro antimycobacterial MIC, broth dilution micro-method
# Assay type: cell-based, Mycobacterium smegmatis
# Settings: Mycolicibacterium smegmatis, ATCC700084, 72 h; MS = M. smegmatis ATCC 700084; 3 days, 37 °C
row,SMILES,MIC [µM]
1,"CCCOc1ccc2c(c1)Sc1c[n+](C)c3ccccc3c1N2 [Compound 6a, 9-propoxy-5-methyl-12H-quino[3,4-b][1,4]benzothiazinium chloride]",22.3

# Tested on: Mycobacterium marinum CAMP 5644
# Test: as above
# Assay type: cell-based
# Settings: CAMP5644, 504 h; MM = Mycobacterium marinum CAMP 5644; 21 days, 28 °C
row,SMILES,MIC [µM]
1,"CCCOc1ccc2c(c1)Sc1c[n+](C)c3ccccc3c1N2 [Compound 6a, 9-propoxy-5-methyl-12H-quino[3,4-b][1,4]benzothiazinium chloride]",22.3

# Tested on: Staphylococcus aureus ATCC 29213
# Test: MBC, agar aliquot subculture method
# Assay type: cell-based
# Settings: ATCC29213; SA = Staphylococcus aureus ATCC 29213
row,SMILES,MBC [µM]
1,"CCCOc1ccc2c(c1)Sc1c[n+](C)c3ccccc3c1N2 [Compound 6a, 9-propoxy-5-methyl-12H-quino[3,4-b][1,4]benzothiazinium chloride]",22.3

# Tested on: methicillin-resistant S. aureus SA 3202 (MRSA1)
# Test: MBC, agar aliquot subculture method
# Assay type: cell-based
# Settings: Staphylococcus aureus; MRSA1 = SA 3202
row,SMILES,MBC [µM]
1,"CCCOc1ccc2c(c1)Sc1c[n+](C)c3ccccc3c1N2 [Compound 6a, 9-propoxy-5-methyl-12H-quino[3,4-b][1,4]benzothiazinium chloride]",22.3

# Tested on: methicillin-resistant S. aureus SA 630 (MRSA2)
# Test: MBC, agar aliquot subculture method
# Assay type: cell-based
# Settings: Staphylococcus aureus; MRSA2 = SA 630
row,SMILES,MBC [µM]
1,"CCCOc1ccc2c(c1)Sc1c[n+](C)c3ccccc3c1N2 [Compound 6a, 9-propoxy-5-methyl-12H-quino[3,4-b][1,4]benzothiazinium chloride]",22.3

# Tested on: methicillin-resistant S. aureus 63718 (MRSA3)
# Test: MBC, agar aliquot subculture method
# Assay type: cell-based
# Settings: Staphylococcus aureus; MRSA3 = 63718
row,SMILES,MBC [µM]
1,"CCCOc1ccc2c(c1)Sc1c[n+](C)c3ccccc3c1N2 [Compound 6a, 9-propoxy-5-methyl-12H-quino[3,4-b][1,4]benzothiazinium chloride]",11.1

# Tested on: Enterococcus faecalis ATCC 29212
# Test: MBC, agar aliquot subculture method
# Assay type: cell-based
# Settings: ATCC29212; EF = Enterococcus faecalis
row,SMILES,MBC [µM]
1,"CCCOc1ccc2c(c1)Sc1c[n+](C)c3ccccc3c1N2 [Compound 6a, 9-propoxy-5-methyl-12H-quino[3,4-b][1,4]benzothiazinium chloride]",89.1

# Tested on: vancomycin-resistant E. faecalis VRE 342B (VRE1)
# Test: MBC, agar aliquot subculture method
# Assay type: cell-based, Enterococcus faecalis
# Settings: VRE1 = VRE 342B
row,SMILES,MBC [µM]
1,"CCCOc1ccc2c(c1)Sc1c[n+](C)c3ccccc3c1N2 [Compound 6a, 9-propoxy-5-methyl-12H-quino[3,4-b][1,4]benzothiazinium chloride]",89.1

# Tested on: vancomycin-resistant E. faecalis VRE 368 (VRE2)
# Test: MBC, agar aliquot subculture method
# Assay type: cell-based, Enterococcus faecalis
# Settings: VRE2 = VRE 368
row,SMILES,MBC [µM]
1,"CCCOc1ccc2c(c1)Sc1c[n+](C)c3ccccc3c1N2 [Compound 6a, 9-propoxy-5-methyl-12H-quino[3,4-b][1,4]benzothiazinium chloride]",89.1

# Tested on: vancomycin-resistant E. faecalis VRE 725B (VRE3)
# Test: MBC, agar aliquot subculture method
# Assay type: cell-based, Enterococcus faecalis
# Settings: VRE3 = VRE 725B
row,SMILES,MBC [µM]
1,"CCCOc1ccc2c(c1)Sc1c[n+](C)c3ccccc3c1N2 [Compound 6a, 9-propoxy-5-methyl-12H-quino[3,4-b][1,4]benzothiazinium chloride]",178

# Tested on: normal human dermal fibroblasts (NHDF)
# Test: In vitro cell viability, WST-1 assay
# Assay type: cell-based
# Settings: 72 h
# Experimental: Compounds were evaluated for their antiproliferative activity using NHDF (normal human dermal fibroblasts, ATCC, Manassas, VA, USA). The cultured cells were kept at 37 °C and 5% CO2. The cells were seeded (1 × 10^4 cells/well/100 μL DMEM supplemented with 10% FCS and streptomycin/penicillin) into 96-well plates (Corning Inc., Corning, NY, USA). Cells were counted using a hemocytometer (Burker chamber) and phase contrast Olympus IX50 microscope equipped with Sony SSC-DC58 AP camera and Olympus DP10 digital camera. The cell viability of the compounds was determined using the Cell Proliferation Reagent WST-1 assay (Roche Molecular Biochemicals, Mannheim, Germany). The examined cells were exposed to the tested compounds (1 mg/mL DMSO stock) for 72 h at various concentrations (0.1–100 μg/mL). The control was included in order to eliminate the DMSO effect at the concentration used. Cell cultures were incubated with WST-1 (10 μL) for 1 h. The absorbance of the samples was measured against a background control at 450 nm using a microplate reader with a reference wavelength at 600 nm. The obtained results are expressed as means of at least two independent experiments performed in triplicate.
row,SMILES,pIC50
1,"CCCOc1ccc2c(c1)Sc1c[n+](C)c3ccccc3c1N2 [Compound 6a, 9-propoxy-5-methyl-12H-quino[3,4-b][1,4]benzothiazinium chloride]",< 4.00

# Tested on: not listed separately
# Test: Lipophilicity by RP-TLC
# Assay type: physicochemical
# Settings: Tris buffer pH 7.4/acetone, read-out: logPTLC
# Experimental: The lipophilicity parameters were determined experimentally using reverse phase thin-layer chromatography (RP-TLC). Chromatograms were prepared on RP-18F254s plates (1.05559.0001, Merck, Germany) precoated with nonpolar silicone oil. Plates were developed in glass chromatography chambers previously saturated with vapor of mobile phase. The mobile phase was composed of 0.2M Tris buffer (pH = 7.4) and acetone in different concentrations, i.e., 50%, 60%, 70%, 80 and 90%. The chromatograms were visualised in UV light (λ = 254 nm). Determination of the RF coefficient was carried out twice for all compounds; in all cases, acetone concentrations used. The final value of RF is the mean of the two measurements. The obtained RF coefficient was used to calculate the value of the RM parameter according to the equation: RM = log [(1/RF) − 1]. By extrapolating RM values to zero acetone concentration, a relative RM0 lipophilicity parameter was obtained, according to the equation: RM = RM0 + bC, where b is slope and C is concentration of acetone in mobile phase. Based on RM0 and the calibration curve, the values of logPTLC for compounds 6a–l were determined. The calibration curve was calculated using the relationship between RM0 of the standard molecules (acetanilide, p-kresol, p-bromoacetophenone, benzophenone, anthracene) and the corresponding logP parameters specified by the extraction method, respectively. RM0 parameters of the standard molecules and quinobenzothiazine derivatives 6a–l were determined in the same empirical conditions.
row,SMILES,chromatographic logP
1,"CCCOc1ccc2c(c1)Sc1c[n+](C)c3ccccc3c1N2 [Compound 6a, 9-propoxy-5-methyl-12H-quino[3,4-b][1,4]benzothiazinium chloride]",1.65

# Tested on: S. aureus ATCC 29213 respiratory activity
# Test: MTT assay of bacterial respiration
# Assay type: cell-based, Staphylococcus aureus
# Settings: S. aureus ATCC 29213, MTT, 24 h
SMILES,Conc.: corresponding multiple of MBC with at least 70% inhibition of respiratory activity,Conc.: lowest multiple of MIC with at least 70% inhibition of respiratory activity
"CCCOc1ccc2c(c1)Sc1c[n+](C)c3ccccc3c1N2 [Compound 6a, 9-propoxy-5-methyl-12H-quino[3,4-b][1,4]benzothiazinium chloride]",2× MIC (2× MBC),2× MIC (2× MBC)

# Same assay, conditions: S. aureus ATCC 29213, at MIC
row,SMILES,Decrease in viability < 70% at MIC value (MTT)
1,"CCCOc1ccc2c(c1)Sc1c[n+](C)c3ccccc3c1N2 [Compound 6a, 9-propoxy-5-methyl-12H-quino[3,4-b][1,4]benzothiazinium chloride]",did not show a decrease in viability < 70%

# Same assay, conditions: at the concentration given
row,SMILES,S. aureus Respiration Inhibition [%]
1,"CCCOc1ccc2c(c1)Sc1c[n+](C)c3ccccc3c1N2 [Compound 6a, 9-propoxy-5-methyl-12H-quino[3,4-b][1,4]benzothiazinium chloride]",97.7

# Tested on: S. aureus
# Test: Crystal violet uptake (membrane permeability)
# Assay type: cell-based, Staphylococcus aureus
# Settings: 4× MIC, 1 h; compared to growth control and 1% Tween 20
# Experimental: Phenothiazines are also known for their ability to interact with and damage the cell wall, which has fatal consequences for the microorganism. Therefore, the bacterial suspensions were treated by compounds 6a, 6e, 6g, 6j and 6k (4× MIC) for 1 h. The uptake of crystal violet was expressed as a percentage compared to the original crystal violet solution.
row,SMILES,Effect on plasma membrane permeability (uptake of crystal violet)
1,"CCCOc1ccc2c(c1)Sc1c[n+](C)c3ccccc3c1N2 [Compound 6a, 9-propoxy-5-methyl-12H-quino[3,4-b][1,4]benzothiazinium chloride]",did not affect plasma membrane permeability
